Source: ChEMBL document CHEMBL1201862, “PubChem BioAssay data set” (2004)
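Growth conditions: 96-well plates. Treatment: test compound, 48 hours, 5 concentrations. Analysis: linear interpolation between bracketing concentrations; unreached endpoints set to highest concentration. Here, GI50 denotes the concentration required for 50% inhibition of growth.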 Calls of active or inactive are those of the source. Rule as the data show it: active = GI50 up to about 1.1 µM and inactive = higher.

Columns and labels:
Assay in all cases: DTP human tumour cell line panel, 48 h
[1] = tested on: A549
[2] = tested on: BT-549
[3] = tested on: CCRF-CEM
[4] = tested on: HT-29
[5] = tested on: K562
[6] = tested on: LOX IMVI
[7] = tested on: MDA-MB-231
[8] = tested on: MDA-N
[9] = tested on: OVCAR-3
[10] = tested on: OVCAR-4
[11] = tested on: RPMI-8226
[12] = tested on: SK-MEL-28
[13] = tested on: SK-MEL-5
[14] = tested on: SR
[15] = tested on: U-251
[16] = tested on: UO-31
[17] = tested on: OVCAR-5
[18] = tested on: SK-OV-3
[19] = tested on: SNB-75

Measured: GI50

CC(=O)n1cc(OP(=O)(Oc2ccccc2)Oc2ccccc2)c2ccccc21
inactive: [1] 32.4 µM | [2] 34.4 µM | [3] 22.9 µM | [4] 36 µM | [5] 23.2 µM | [6] 23.2 µM | [7] 24.8 µM | [8] 27.6 µM | [9] 24.2 µM | [10] 29.6 µM | [11] 19.2 µM | [12] 29.3 µM | [13] 19 µM | [14] 10.9 µM | [15] 33.5 µM | [16] 22.1 µM

OCC1OC(n2nc(-c3ccccc3)nc2-c2cnccn2)C(O)C1O (stereo not given)
inactive: [1] > 100 µM | [2] > 100 µM | [3] > 100 µM | [4] > 100 µM | [5] > 100 µM | [6] > 100 µM | [7] > 100 µM | [8] > 100 µM | [9] > 100 µM | [10] > 100 µM | [17] > 100 µM | [12] > 100 µM | [13] > 100 µM | [18] > 100 µM | [19] > 100 µM | [15] > 100 µM | [16] > 100 µM

Cc1ccc(S(=O)(=O)Nn2c(S)c(C#N)c(-c3ccc(Cl)cc3)c(C#N)c2=O)cc1
inactive: [1] 43.7 µM | [2] 17.3 µM | [3] 7.93 µM | [5] 38.6 µM | [6] 29.9 µM | [7] 36.2 µM | [9] 53.6 µM | [10] 15.1 µM | [17] 50.1 µM | [11] 26.2 µM | [12] 31.2 µM | [13] 16.4 µM | [18] 61 µM | [19] 33.8 µM | [14] 29.7 µM | [15] 22.2 µM | [16] 19.1 µM

NC(CSCc1ccc(I)cc1)C(=O)O (stereo not given)
inactive: [1] > 100 µM | [2] > 100 µM | [3] > 100 µM | [4] > 100 µM | [5] > 100 µM | [6] > 100 µM | [7] > 100 µM | [8] > 100 µM | [9] > 100 µM | [10] > 100 µM | [17] > 100 µM | [11] > 100 µM | [12] > 100 µM | [13] > 100 µM | [18] > 100 µM | [19] > 100 µM | [15] > 100 µM | [16] > 100 µM

COc1ccc(NC(=O)CC(=O)N2N=C(N3CCCCC3)CC2c2ccccc2)cc1 (stereo not given)
inactive: [1] > 100 µM | [2] > 100 µM | [3] > 100 µM | [4] > 100 µM | [6] > 100 µM | [7] > 100 µM | [8] > 100 µM | [9] > 100 µM | [10] > 100 µM | [17] > 100 µM | [12] > 100 µM | [13] > 100 µM | [19] > 100 µM | [14] > 100 µM | [15] > 100 µM | [16] > 100 µM

O=C(/C=C/c1ccc(OCc2ccccc2)cc1)NCc1ccc(C(=O)NCCc2ccccc2)cc1
inactive: [1] > 100 µM | [2] > 100 µM | [3] 11.4 µM | [4] > 100 µM | [6] > 100 µM | [7] > 100 µM | [8] > 100 µM | [9] > 100 µM | [10] > 100 µM | [17] > 100 µM | [12] > 100 µM | [13] > 100 µM | [18] > 100 µM | [19] > 100 µM | [15] > 100 µM | [16] > 100 µM
